Data from ChEMBL document CHEMBL1201862, “PubChem BioAssay data set” (2004).
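In this assay, cells in 96-well plates receive the compound at five concentrations for 48 hours. Endpoints are linearly interpolated between the surrounding concentrations. Abbreviation: GI50, concentration required for 50% inhibition of growth.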 Active and inactive are the calls of the source. No stated cut-off is given here; in the data, active = GI50 up to about 1.1 µM and inactive = higher. Where a SMILES comes first, the peptide text is derived from it. [ ]: non-standard residue; d: D form. The star is where a group is joined. NMeAc5c = CNC1(C(=O)O)CCCC1; Boc = CC(C)(C)OC(=O)*; OBn = c1ccc(CO*)cc1

Test system: BT-549
Test: NCI tumour cell line growth inhibition, 48 h

SMILES: Oc1ccc(/C=C/c2cccc(/C=C/c3ccc(O)c(O)c3)n2)cc1O
- GI50: 10.9 µM (inactive)

SMILES: O=C1C(=C(C(F)(F)Cl)C(F)(F)Cl)C2CCC1C2 (stereo not drawn)
- GI50: 1.58 µM (inactive)

SMILES: CC(=O)/C=C1\Nc2ccccc2N\C1=C/C(C)=O
- GI50: 35 µM (inactive)

SMILES: COc1ccc(Nc2cc(O)nc(O)n2)cc1
- GI50: > 100 µM (inactive)

SMILES: Nc1nc(-c2ccccc2)nc2oc(-c3cccs3)nc12
- GI50: > 100 µM (inactive)

SMILES: Cc1ccsc1/C=N/NC1=NCCN1
- GI50: > 100 µM (inactive)

SMILES: O=C1CC(c2ccccc2Cl)C2(C(=O)NC(=O)NC2=O)C(c2ccccc2Cl)C1 (stereo not drawn)
- GI50: > 100 µM (inactive)

SMILES: CC12CC(OC(=O)[C@]1(C)O)[C@@H]([C@]1(O)CC[C@H]3[C@@H]4C[C@H]5O[C@]56[C@@H](O)C=CC(=O)[C@]6(C)[C@H]4CC[C@@]31C)C2 (stereo partly drawn)
- GI50: 4.06 µM (inactive)

SMILES: CC1CC[C@@]2(OC1)OC1C[C@H]3[C@@H]4CC=C5CC(OC6OC(CO)C(OC7OC(CO)C(O)C(OC8OCC(O)C(O)C8O)C7OC7OC(CO)C(OC8OC(C)C(OC9OC(C)C(O)C(O)C9O)C(O)C8O)C(O)C7O)C(O)C6O)CCC5(C)[C@H]4CCC3(C)C1[C@@H]2C (stereo partly drawn)
- GI50: 9.2 µM (inactive)

SMILES: Nc1nc(-c2cccc([N+](=O)[O-])c2)cc(-c2cc(-c3cccc([N+](=O)[O-])c3)nc(N)n2)n1
- GI50: > 100 µM (inactive)

SMILES: COc1ccc(-n2c(N)c(C#N)c(C#N)c2-c2ccccc2)cc1
- GI50: 19.1 µM (inactive)

SMILES: CCN(CC)C1Oc2cc3c(cc2C(c2cc(OC)c(OC)c(OC)c2)C1C)OCO3 (stereo not drawn)
- GI50: 7.1 µM (inactive)

SMILES: Cc1ccc(S(=O)(=O)NNC(C[N+](=O)[O-])c2ccccc2)cc1 (stereo not drawn)
- GI50: 15.6 µM (inactive)

SMILES: Cc1c2ccccc2c(CSC(=N)N)c2ccccc12
- GI50: 0.902 µM (active)

SMILES: CN(C(=O)C(Cc1ccccc1)NC(=O)OC(C)(C)C)C1(C(=O)NC(Cc2ccccc2)C(=O)OCc2ccccc2)CCCC1 (stereo not drawn) (Boc-Phe-[NMeAc5c]-Phe-OBn; configuration not given here)
- GI50: > 100 µM (inactive)

SMILES: CNNC1=NS(=O)(=O)c2cc(C(=O)OC)c(Cl)cc2S1
- GI50: > 10 µM (inactive)

SMILES: CCCCN(C)C(=O)C1=C(C)NC(C)=C(C(=O)N(C)CCCC)C1
- GI50: > 100 µM (inactive)

SMILES: Cc1cc(-n2nnc(C(=O)O)c2-c2ccccc2)c2ccc(Cl)cc2n1
- GI50: > 100 µM (inactive)

SMILES: CCC1(C)C=Cc2c(cc(O)c3c(=O)c4ccccc4n(C)c23)O1 (stereo not drawn)
- GI50: > 10 µM (inactive)

SMILES: CC(C)N(Cc1ccccc1)S(=O)(=O)c1nc(C(C)(C)C)n[nH]1
- GI50: > 100 µM (inactive)

SMILES: C/C(=N/NC(=S)N1CCCCCC1)c1ccccc1O
- GI50: 8.97 µM (inactive)

SMILES: Oc1ccc(/C=C/c2cc(O)cc(O)c2)cc1 [RESVERATROL]
- GI50: > 100 µM (inactive)

SMILES: CCCCc1ccc(Nc2cc(=O)n(C)c(=O)[nH]2)cc1
- GI50: > 100 µM (inactive)

SMILES: CC(=O)Nc1ccc2[nH]c(C(=O)N3CC(CCl)c4c3cc(N)c3ccccc43)cc2c1 (stereo not drawn)
- GI50: < 0.0312 µM (active)

SMILES: C=C1C(=O)OC2CC1C(O)C/C(C)=C/CC/C(C)=C/C(O)CC2C (stereo not drawn)
- GI50: 2.31 µM (inactive)

SMILES: N#CC1=C2SCCN2C(=O)C(C#N)C12CCCCC2 (stereo not drawn)
- GI50: > 100 µM (inactive)

SMILES: O=C(O)CSc1ccc(N=C=S)cc1
- GI50: 56.2 µM (inactive)

SMILES: O=P(Oc1ccc(Cl)cc1)(Oc1ccc(Cl)cc1)N1CC1
- GI50: > 10 µM (inactive)

SMILES: S=c1sscc1N1CCSc2ssc(=S)c21
- GI50: 37 µM (inactive)

SMILES: CC(=O)c1ccc2c3c1[C@@H]1O[C@@H]1c1cccc(c1-3)[C@@H]1O[C@H]21
- GI50: 15.1 µM (inactive)

SMILES: O=C1C=CC(=O)c2c1ccc1c3ccccc3n(CCCCCn3c4ccccc4c4ccc5c(c43)C(=O)C=CC5=O)c21
- GI50: 32.4 µM (inactive)

SMILES: CC(C)(C)OC(=O)N1C(=O)C2CCCC21 (stereo not drawn)
- GI50: > 100 µM (inactive)

SMILES: COc1cc(C2(O)c3ccccc3C3=NCCN32)cc(OC)c1OC (stereo not drawn)
- GI50: > 100 µM (inactive)

SMILES: CC(=O)Oc1c(-c2ccccc2)oc2ccccc12
- GI50: 2.65 µM (inactive)

SMILES: COC(=O)C1CC(C=[N+](C)C)=C(SC)N1 (stereo not drawn)
- GI50: > 100 µM (inactive)

SMILES: COc1ccc(Cc2nc3cc([N+](=O)[O-])ccc3n2C[C@@H]2CCCN3CCCCC23)cc1 (stereo partly drawn)
- GI50: 19.7 µM (inactive)

SMILES: CCCCCCCCCCCCOc1ccc(/C=C/C2=[N+](CCCl)CCO2)cc1
- GI50: > 100 µM (inactive)

SMILES: CC(C)(Oc1ccc(C2C[C@H]2Cl)cc1)C(=O)O (stereo partly drawn)
- GI50: > 100 µM (inactive)
